Source: patent US12295959B2 (priority 2021, dated 2025)

Experiments:
[1] = target: T1, 5-HT2C edited (accession number AAF35842.1) (Homo sapiens, UniProt P28335, I156V/I160V/N158S); test: biochemical; assay type: binding
Target sequence in this assay (P28335 33-458 I156V/N158S/I160V limits assumed): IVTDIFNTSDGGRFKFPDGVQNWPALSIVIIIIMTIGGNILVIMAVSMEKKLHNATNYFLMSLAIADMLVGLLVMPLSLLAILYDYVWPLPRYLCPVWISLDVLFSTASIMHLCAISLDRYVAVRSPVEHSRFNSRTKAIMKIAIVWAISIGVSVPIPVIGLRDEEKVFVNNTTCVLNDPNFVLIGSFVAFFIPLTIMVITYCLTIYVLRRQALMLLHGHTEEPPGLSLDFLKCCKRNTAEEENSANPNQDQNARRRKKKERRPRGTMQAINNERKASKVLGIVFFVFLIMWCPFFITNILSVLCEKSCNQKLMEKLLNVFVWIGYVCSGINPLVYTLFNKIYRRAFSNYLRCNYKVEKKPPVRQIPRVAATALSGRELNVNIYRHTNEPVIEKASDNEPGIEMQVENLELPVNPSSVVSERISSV

[2] = target: T1, 5-HT2C edited (accession number AAF35842.1); test: cell-based
Target sequence in this assay (P28335 whole entry I156V/N158S/I160V, looked up): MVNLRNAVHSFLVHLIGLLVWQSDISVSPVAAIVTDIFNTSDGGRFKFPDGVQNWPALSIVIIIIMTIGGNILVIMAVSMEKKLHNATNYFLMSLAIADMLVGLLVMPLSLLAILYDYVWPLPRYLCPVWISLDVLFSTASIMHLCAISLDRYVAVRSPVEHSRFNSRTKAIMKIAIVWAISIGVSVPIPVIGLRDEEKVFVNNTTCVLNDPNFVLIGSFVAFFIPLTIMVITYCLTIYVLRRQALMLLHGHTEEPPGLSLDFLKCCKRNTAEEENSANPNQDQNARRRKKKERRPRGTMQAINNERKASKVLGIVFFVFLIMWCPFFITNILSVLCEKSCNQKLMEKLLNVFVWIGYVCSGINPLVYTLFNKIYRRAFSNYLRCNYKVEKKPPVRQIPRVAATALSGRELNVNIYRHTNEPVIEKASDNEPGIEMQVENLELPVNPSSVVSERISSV

[3] = target: 5-HT2C (Homo sapiens, UniProt P28335, I156V/I160V/N158S); test: cell-based
Sequence of 5-HT2C (P28335 33-458 I156V/N158S/I160V limits assumed): as the sequence (P28335 33-458 I156V/N158S/I160V limits assumed) above

Row | SMILES | IC50 [1] [nM] | EC50 [2] [nM] | IC50 [3] [nM]
1 | Fc1ccc(Oc2cccc3[nH]c4c(c23)CCNCC4)cc1 [Compound 21, 10-(4-fluorophenoxy)-1,2,3,4,5,6-hexahydroazepino[4,5-b]indole] | < 10 | < 10 | –
2 | c1ccc(Oc2ccc3c4c([nH]c3c2)CCNCC4)cc1 [Compound 11, 8-phenoxy-1,2,3,4,5,6-hexahydroazepino[4,5-b]indole] | 101 to 1000 | 101 to 1000 | > 10000
3 | CN1CCc2[nH]c3cc(Oc4ccc(F)cc4)ccc3c2CC1 [Compound 16, 8-(4-fluorophenoxy)-3-methyl-1,2,3,4,5,6-hexahydroazepino[4,5-b]indole] | 101 to 1000 | 1000 to 10000 | > 10000
4 | Cn1c2c(c3ccc(OCc4ccc(F)cc4)cc31)CCNCC2 [Compound 9, 8-((4-fluorobenzyl)oxy)-6-methyl-1,2,3,4,5,6-hexahydroazepino[4,5-b]indole] | 101 to 1000 | 1000 to 10000 | –
5 | CN1CCc2[nH]c3cccc(Oc4ccc(F)cc4)c3c2CC1 [Compound 22, 10-(4-fluorophenoxy)-3-methyl-1,2,3,4,5,6-hexahydroazepino[4,5-b]indole] | 10 to 100 | < 10 | > 10000
6 | CN1CCc2c(n(C)c3cc(OCc4ccccc4)ccc23)CC1 [Compound 6, 8-(benzyloxy)-3,6-dimethyl-1,2,3,4,5,6-hexahydroazepino[4,5-b]indole] | 101 to 1000 | 1000 to 10000 | –
7 | c1ccc(COc2cccc3[nH]c4c(c23)CCNCC4)cc1 [Compound 4, 10-(benzyloxy)-1,2,3,4,5,6-hexahydroazepino[4,5-b]indole] | < 10 | < 10 | –
8 | Cn1c2c(c3ccc(Oc4ccccc4)cc31)CCNCC2 [Compound 13, 6-methyl-8-phenoxy-1,2,3,4,5,6-hexahydroazepino[4,5-b]indole] | 101 to 1000 | 1000 to 10000 | –
9 | Cn1c2c(c3ccc(OCc4ccccc4)cc31)CCNCC2 [Compound 5, 8-(benzyloxy)-6-methyl-1,2,3,4,5,6-hexahydroazepino[4,5-b]indole] | 101 to 1000 | 1000 to 10000 | > 10000
10 | Cn1c2c(c3ccc(Oc4ccc(F)cc4)cc31)CCNCC2 [Compound 17, 8-(4-fluorophenoxy)-6-methyl-1,2,3,4,5,6-hexahydroazepino[4,5-b]indole] | 10 to 100 | 1000 to 10000 | –
11 | Cn1c2c(c3c(Oc4ccc(F)cc4)cccc31)CCNCC2 [Compound 23, 10-(4-fluorophenoxy)-6-methyl-1,2,3,4,5,6-hexahydroazepino[4,5-b]indole] | 10 to 100 | 101 to 1000 | –
12 | CN1CCc2c(n(C)c3cc(Oc4ccc(F)cc4)ccc23)CC1 [Compound 18, 8-(4-fluorophenoxy)-3,6-dimethyl-1,2,3,4,5,6-hexahydroazepino[4,5-b]indole] | 101 to 1000 | 101 to 1000 | 1000 to 10000
13 | CN1CCc2[nH]c3c(OCc4ccccc4)cccc3c2CC1 [Compound 28, 7-(benzyloxy)-3-methyl-1,2,3,4,5,6-hexahydroazepino[4,5-b]indole] | 101 to 1000 | 101 to 1000 | 101 to 1000
14 | CN1CCc2[nH]c3cc(OCc4ccccc4)ccc3c2CC1 [Compound 1, 8-(benzyloxy)-3-methyl-1,2,3,4,5,6-hexahydroazepino[4,5-b]indole] | 101 to 1000 | 1000 to 10000 | –
15 | c1ccc(COc2ccc3c4c([nH]c3c2)CCNCC4)cc1 [Compound 3, 8-(benzyloxy)-1,2,3,4,5,6-hexahydroazepino[4,5-b]indole] | 101 to 1000 | 101 to 1000 | –
16 | CN1CCc2[nH]c3c(Br)ccc(OCc4ccccc4)c3c2CC1 [Compound 29, 10-(benzyloxy)-7-bromo-3-methyl-1,2,3,4,5,6-hexahydroazepino[4,5-b]indole] | < 10 | > 10000 | 10 to 100
17 | CN1CCc2[nH]c3cc(Oc4ccccc4)ccc3c2CC1 [Compound 12, 3-methyl-8-phenoxy-1,2,3,4,5,6-hexahydroazepino[4,5-b]indole] | 101 to 1000 | 1000 to 10000 | > 10000
18 | CN1CCc2[nH]c3cccc(OCc4ccccc4)c3c2CC1 [Compound 2, 10-(benzyloxy)-3-methyl-1,2,3,4,5,6-hexahydroazepino[4,5-b]indole] | < 10 | 10 to 100 | 10 to 100
19 | CN1CCc2c(n(C)c3cccc(Oc4ccc(F)cc4)c23)CC1 [Compound 24, 10-(4-fluorophenoxy)-3,6-dimethyl-1,2,3,4,5,6-hexahydroazepino[4,5-b]indole] | 10 to 100 | 101 to 1000 | 10 to 100
20 | CN1CCc2[nH]c3cc(OCc4ccc(F)cc4)ccc3c2CC1 [Compound 8, 8-((4-fluorobenzyl)oxy)-3-methyl-1,2,3,4,5,6-hexahydroazepino[4,5-b]indole] | 101 to 1000 | 1000 to 10000 | 1000 to 10000
21 | c1ccc(Oc2cccc3[nH]c4c(c23)CCNCC4)cc1 [Compound 20, 10-phenoxy-1,2,3,4,5,6-hexahydroazepino[4,5-b]indole] | < 10 | < 10 | –
22 | Cn1c2c(c3c(OCc4ccccc4)cccc31)CCNCC2 [Compound 19, 10-(benzyloxy)-6-methyl-1,2,3,4,5,6-hexahydroazepino[4,5-b]indole] | 10 to 100 | 10 to 100 | –
23 | Fc1ccc(Oc2ccc3c4c([nH]c3c2)CCNCC4)cc1 [Compound 15, 8-(4-fluorophenoxy)-1,2,3,4,5,6-hexahydroazepino[4,5-b]indole] | 101 to 1000 | 101 to 1000 | –
24 | c1ccc(COc2ccc3[nH]c4c(c3c2)CCNCC4)cc1 [Compound 25, 9-(benzyloxy)-1,2,3,4,5,6-hexahydroazepino[4,5-b]indole] | 10 to 100 | 10 to 100 | > 10000
25 | Fc1ccc(COc2ccc3c4c([nH]c3c2)CCNCC4)cc1 [Compound 7, 8-((4-fluorobenzyl)oxy)~1,2,3,4,5,6-hexahydroazepino[4,5-b]indole] | 101 to 1000 | 101 to 1000 | > 10000
26 | CN1CCc2c(n(C)c3cc(OCc4ccc(F)cc4)ccc23)CC1 [Compound 10, 8-((4-fluorobenzyl)oxy)-3,6-dimethyl-1,2,3,4,5,6-hexahydroazepino[4,5-b]indole] | 101 to 1000 | 1000 to 10000 | 1000 to 10000
27 | c1ccc(COc2cccc3c4c([nH]c23)CCNCC4)cc1 [Compound 27, 7-(benzyloxy)-1,2,3,4,5,6-hexahydroazepino[4,5-b]indole] | 101 to 1000 | 101 to 1000 | –
28 | CN1CCc2[nH]c3ccc(OCc4ccccc4)cc3c2CC1 [Compound 26, 9-(benzyloxy)-3-methyl-1,2,3,4,5,6-hexahydroazepino[4,5-b]indole] | 101 to 1000 | 101 to 1000 | 101 to 1000
29 | CN1CCc2c(n(C)c3cc(Oc4ccccc4)ccc23)CC1 [Compound 14, 3,6-dimethyl-8-phenoxy-1,2,3,4,5,6-hexahydroazepino[4,5-b]indole] | 101 to 1000 | 101 to 1000 | > 10000
